According to patent US20240287138A1, “CYCLIC PEPTIDES FOR INHIBITING TNF RECEPTOR 1 ACTIVITY” (Merck Sharp & Dohme LLC, priority 2023, published 2024):
pIC50: −log10 of the molar value. Numbered stars: 1 amine (or outer) side, 2 acyl side, 3 side chain; on linkers, the order of the positions; unused ones are H or OH. Bridge positions count the residues as written; N and C are the ends. Square brackets hold non-standard residues; d marks the D form. Peptide text beside a SMILES is read from it. * marks the point of attachment. Trp(βS-Me,7-OMe) = COc1cccc2c([C@H](C)[C@H](N)C(=O)O)c[nH]c12; Trp(βS-Me) = C[C@@H](c1c[nH]c2ccccc12)[C@H](N)C(=O)O; Trp(4-Cl) = N[C@@H](Cc1c[nH]c2cccc(Cl)c12)C(=O)O; Trp(7-CN) = N#Cc1cccc2c(C[C@H](N)C(=O)O)c[nH]c12; Trp(7-Cl) = N[C@@H](Cc1c[nH]c2c(Cl)cccc12)C(=O)O; Phe(3-CONH2) = NC(=O)c1cccc(C[C@H](N)C(=O)O)c1; Phe(4-CONH2) = NC(=O)c1ccc(C[C@H](N)C(=O)O)cc1; Phe(4-COOH) = N[C@@H](Cc1ccc(C(=O)O)cc1)C(=O)O; Trp(7-F) = N[C@@H](Cc1c[nH]c2c(F)cccc12)C(=O)O; Trp(7-aza) = N[C@@H](Cc1c[nH]c2ncccc12)C(=O)O; X10 = O=C([C@H](Cc1ccnc2ccccc12)N[*:1])[*:2]; Phe(4-CH2NH2) = NCc1ccc(C[C@H](N)C(=O)O)cc1; dPro(trans-4-F) = O=C(O)[C@H]1C[C@H](F)CN1; Pip(5R-OH) = O=C(O)[C@@H]1CC[C@@H](O)CN1; X4 = O=C([C@H]1C=C[C@@H](N[*:1])C1)[*:2]; X1 = O=C([C@@H]1CC[C@H](N[*:1])C1)[*:2]; X19 = O=C([C@H](Cc1ccncn1)N[*:1])[*:2]; 2Nal = N[C@@H](Cc1ccc2ccccc2c1)C(=O)O; Isoxazole(3-carbonyl) = O=C(c1ccon1)*; Pip(4-aza) = O=C(O)[C@@H]1CNCCN1; hPhe = N[C@@H](CCc1ccccc1)C(=O)O; 3Pal = N[C@@H](Cc1cccnc1)C(=O)O; 4Pal = N[C@@H](Cc1ccncc1)C(=O)O; NMeE = CN[C@@H](CCC(=O)O)C(=O)O; dHyp = O=C(O)[C@H]1C[C@H](O)CN1; Cit = NC(=O)NCCC[C@H](N)C(=O)O; Ahp(2) = CCCCC[C@H](N)C(=O)O; αMeS = C[C@](N)(CO)C(=O)O; NMeA = CN[C@@H](C)C(=O)O; Nle = CCCC[C@H](N)C(=O)O; Dab = NCC[C@H](N)C(=O)O; Dap = NC[C@H](N)C(=O)O; Sar = CNCC(=O)O

Target: T1, TNFα-induced NF-κB signal transduction pathway (TNFR1 signaling) in THP-1 cells (Homo sapiens, UniProt P19438)
T1 sequence (P19438 30-455): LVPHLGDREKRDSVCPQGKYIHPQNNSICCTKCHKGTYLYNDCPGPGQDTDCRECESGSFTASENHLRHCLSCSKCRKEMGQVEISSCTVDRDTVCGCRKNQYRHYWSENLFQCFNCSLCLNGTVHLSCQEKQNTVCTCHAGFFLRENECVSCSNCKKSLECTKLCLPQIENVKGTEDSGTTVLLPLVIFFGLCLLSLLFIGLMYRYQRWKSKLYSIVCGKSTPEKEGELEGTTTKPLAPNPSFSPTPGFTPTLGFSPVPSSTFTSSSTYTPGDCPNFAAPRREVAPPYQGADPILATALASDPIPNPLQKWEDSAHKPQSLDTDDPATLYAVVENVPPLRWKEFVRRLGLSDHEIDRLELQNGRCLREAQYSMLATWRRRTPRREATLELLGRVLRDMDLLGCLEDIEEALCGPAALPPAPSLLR
Experiment: THP-1 Lucia NF-κB reporter cell assay, inhibition of TNFα-induced NF-κB signaling
Type: cell-based
Conditions: THP-1 NF-κB Lucia reporter cells, 10 ng/mL TNFα, 16-18 h, secreted luciferase; read-out: THP-1 IC50
In short: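 IC50 from a 4-parameter logistic fit of secreted luciferase luminescence (QUANTI-Luc), normalised to min/max controls. Reporter THP-1 cells were exposed to peptides for 1 h at 37 °C before 10 ng/mL TNFα (final) was added overnight (16–18 h).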

SMILES	pIC50
C[C@@]1(CO)NC(=O)[C@H](Cc2c[nH]c3ncccc23)NC(=O)[C@H](Cc2ccncc2)NC(=O)[C@H](CC(N)=O)NC(=O)[C@H]2CCCN2C(=O)[C@H](Cc2ccnc3ccccc23)NC(=O)[C@H](CO)NC(=O)[C@H](Cc2ccncc2)NC(=O)[C@H](CCC(N)=O)NC(=O)CSC[C@@H](C(N)=O)NC(=O)[C@H](Cc2c[nH]c3cccc(Cl)c23)NC(=O)[C@@H]2CCCN2C(=O)[C@H](Cc2ccc(O)cc2)NC(=O)[C@H](Cc2ccc(C(=O)O)cc2)NC1=O [SEQ ID NO. 278] ({CH2CO}-Q[4Pal]S[X10][dP]N[4Pal][Trp(7-aza)][αMeS][Phe(4-COOH)]YP[Trp(4-Cl)]C-NH2; thioether N-14)	7.26
CCCCC[C@@H]1NC(=O)[C@@H]2CC[C@@H](C2)NC(=O)[C@H]([C@@H](C)c2c[nH]c3c(OC)cccc23)NC(=O)CN(C)C(=O)[C@H](Cc2cccc(C(N)=O)c2)NC(=O)[C@H](Cc2ccc(C(N)=O)cc2)NC(=O)[C@](C)(CO)NC(=O)[C@H](Cc2c[nH]c3c(C#N)cccc23)NC(=O)[C@H](Cc2ccncc2)NC(=O)[C@H](CC(N)=O)NC(=O)[C@H]2C[C@H](O)CN2C(=O)[C@H](Cc2c[nH]c3ccccc23)NC(=O)[C@@H]2CNCCN2C(=O)[C@H](Cc2ccncc2)NC1=O [SEQ ID NO. 174] (cyclo([4Pal][Trp(7-CN)][αMeS][Phe(4-CONH2)][Phe(3-CONH2)][Sar][Trp(βS-Me,7-OMe)][X1][Ahp(2)][4Pal][Pip(4-aza)]W[dHyp]N))	9.15
C[C@H]1C(=O)N[C@@H](CC(N)=O)C(=O)N[C@@H](Cc2ccncc2)C(=O)N[C@@H](Cc2c[nH]c3ccccc23)C(=O)N[C@@](C)(CO)C(=O)N[C@@H](Cc2ccc(C(=O)O)cc2)C(=O)N[C@@H](Cc2ccc(O)cc2)C(=O)N(C)CC(=O)N[C@@H](Cc2c[nH]c3ccccc23)C(=O)N[C@H](C(N)=O)CSCC(=O)N[C@@H](CCc2ccccc2)C(=O)N[C@@H](Cc2ccc(O)cc2)C(=O)N[C@@H](CO)C(=O)N[C@@H](Cc2c[nH]c3c(F)cccc23)C(=O)N1C [SEQ ID NO. 263] ({CH2CO}-[hPhe]YS[Trp(7-F)][NMeA]N[4Pal]W[αMeS][Phe(4-COOH)]Y[Sar]WC-NH2; thioether N-14)	8.33
COc1cccc2c([C@H](C)[C@@H]3NC(=O)CN(C)C(=O)[C@H](Cc4cccc(C(N)=O)c4)NC(=O)[C@H](Cc4ccc(C(N)=O)cc4)NC(=O)[C@](C)(CO)NC(=O)[C@H](Cc4c[nH]c5c(Cl)cccc45)NC(=O)[C@H](Cc4ccncc4)NC(=O)[C@H](CC(N)=O)NC(=O)[C@H]4C[C@H](O)CN4C(=O)[C@H](Cc4c[nH]c5ccccc45)NC(=O)[C@@H]4CC[C@@H](O)CN4C(=O)[C@H](Cc4ccncc4)NC(=O)[C@H](CCNC(=O)c4ccon4)NC(=O)[C@@H]4CC[C@@H](C4)NC3=O)c[nH]c12 [SEQ ID NO. 169] (cyclo([4Pal][Trp(7-Cl)][αMeS][Phe(4-CONH2)][Phe(3-CONH2)][Sar][Trp(βS-Me,7-OMe)][X1][Dab](Isoxazole(3-carbonyl))[4Pal][Pip(5R-OH)]W[dHyp]N))	9.22
CCCC[C@@H]1NC(=O)[C@@H]2CC[C@@H](C2)NC(=O)[C@H]([C@@H](C)c2c[nH]c3c(OC)cccc23)NC(=O)CN(C)C(=O)[C@H](Cc2ccc(C(N)=O)cc2)NC(=O)[C@H](Cc2ccc(C(N)=O)cc2)NC(=O)[C@](C)(CO)NC(=O)[C@H](Cc2c[nH]c3c(C#N)cccc23)NC(=O)[C@H](Cc2ccc(C(=O)O)cc2)NC(=O)[C@H](CC(N)=O)NC(=O)[C@H]2C[C@H](F)CN2C(=O)[C@H](Cc2c[nH]c3ccccc23)NC(=O)[C@@H]2CC[C@@H](O)CN2C(=O)[C@H](Cc2ccncc2)NC1=O [SEQ ID NO. 114] (cyclo([4Pal][Pip(5R-OH)]W[dPro(trans-4-F)]N[Phe(4-COOH)][Trp(7-CN)][αMeS][Phe(4-CONH2)][Phe(4-CONH2)][Sar][Trp(βS-Me,7-OMe)][X1][Nle]))	9.05
CCCC[C@@H]1NC(=O)[C@@H]2CC[C@@H](C2)NC(=O)[C@H]([C@@H](C)c2c[nH]c3c(OC)cccc23)NC(=O)CN(C)C(=O)[C@H](Cc2ccc(O)cc2)NC(=O)[C@H](Cc2ccc(C(=O)O)cc2)NC(=O)[C@](C)(CO)NC(=O)[C@H](Cc2c[nH]c3c(Cl)cccc23)NC(=O)[C@H](Cc2ccncc2)NC(=O)[C@H](CC(N)=O)NC(=O)[C@H](CCC(=O)O)N(C)C(=O)[C@H](Cc2c[nH]c3c(Cl)cccc23)NC(=O)[C@@H]2CNCCN2C(=O)[C@H](Cc2ccncc2)NC1=O [SEQ ID NO. 262] (cyclo([4Pal][Trp(7-Cl)][αMeS][Phe(4-COOH)]Y[Sar][Trp(βS-Me,7-OMe)][X1][Nle][4Pal][Pip(4-aza)][Trp(7-Cl)][NMeE]N))	8.92
CN1CC(=O)N[C@@H](Cc2c[nH]c3ccccc23)C(=O)N[C@H](C(N)=O)CSCC(=O)N[C@@H](CCc2ccccc2)C(=O)N[C@@H](Cc2ccncc2)C(=O)N[C@@H](CN)C(=O)N[C@@H](Cc2c[nH]c3ccccc23)C(=O)N2CCC[C@@H]2C(=O)N[C@@H](CC(N)=O)C(=O)N[C@@H](Cc2ccncc2)C(=O)N[C@@H](Cc2ccc3ccccc3c2)C(=O)N[C@@](C)(CO)C(=O)N[C@@H](Cc2ccc(C(=O)O)cc2)C(=O)N[C@@H](Cc2cccnc2)C1=O [SEQ ID NO. 233] ({CH2CO}-[hPhe][4Pal][Dap]W[dP]N[4Pal][2Nal][αMeS][Phe(4-COOH)][3Pal][Sar]WC-NH2; thioether N-14)	7.85
CCCC[C@@H]1NC(=O)CSC[C@@H](C(N)=O)NC(=O)[C@H]([C@@H](C)c2c[nH]c3c(OC)cccc23)NC(=O)CN(C)C(=O)[C@H](Cc2ccc(O)cc2)NC(=O)[C@H](Cc2ccc(C(=O)O)cc2)NC(=O)[C@](C)(CO)NC(=O)[C@H](Cc2c[nH]c3c(Cl)cccc23)NC(=O)[C@H](Cc2ccncc2)NC(=O)[C@H](CC(N)=O)NC(=O)[C@H](CCC(=O)O)N(C)C(=O)[C@H](Cc2c[nH]c3ncccc23)NC(=O)[C@@H]2CNCCN2C(=O)[C@H](CCc2ccccc2)NC1=O [SEQ ID NO. 172] ({CH2CO}-[Nle][hPhe][Pip(4-aza)][Trp(7-aza)][NMeE]N[4Pal][Trp(7-Cl)][αMeS][Phe(4-COOH)]Y[Sar][Trp(βS-Me,7-OMe)]C-NH2; thioether N-14)	8.41
CCCC[C@@H]1NC(=O)[C@@H]2CC[C@@H](C2)NC(=O)[C@H]([C@@H](C)c2c[nH]c3c(OC)cccc23)NC(=O)CN(C)C(=O)[C@H](Cc2ccc(O)cc2)NC(=O)[C@H](Cc2ccc(C(=O)O)cc2)NC(=O)[C@](C)(CO)NC(=O)[C@H](Cc2c[nH]c3c(Cl)cccc23)NC(=O)[C@H](Cc2ccncc2)NC(=O)[C@H](CC(N)=O)NC(=O)CN(C)C(=O)[C@H](Cc2c[nH]c3ccccc23)NC(=O)[C@@H]2CNCCN2C(=O)[C@H](Cc2ccncc2)NC1=O [SEQ ID NO. 141] (cyclo([4Pal][Trp(7-Cl)][αMeS][Phe(4-COOH)]Y[Sar][Trp(βS-Me,7-OMe)][X1][Nle][4Pal][Pip(4-aza)]W[Sar]N))	8.92
CCCC[C@@H]1NC(=O)[C@@H]2CC[C@@H](C2)NC(=O)[C@H]([C@@H](C)c2c[nH]c3c(OC)cccc23)NC(=O)CN(C)C(=O)[C@H](Cc2ccc(C(=O)O)cc2)NC(=O)[C@H](Cc2ccc(C(N)=O)cc2)NC(=O)[C@](C)(CO)NC(=O)[C@H](Cc2c[nH]c3c(Cl)cccc23)NC(=O)[C@H](Cc2ccncn2)NC(=O)[C@H](CC(N)=O)NC(=O)[C@H]2C[C@H](O)CN2C(=O)[C@H](Cc2c[nH]c3ncccc23)NC(=O)[C@@H]2CC[C@@H](O)CN2C(=O)[C@H](Cc2ccncc2)NC1=O [SEQ ID NO. 159] (cyclo([4Pal][Pip(5R-OH)][Trp(7-aza)][dHyp]N[X19][Trp(7-Cl)][αMeS][Phe(4-CONH2)][Phe(4-COOH)][Sar][Trp(βS-Me,7-OMe)][X1][Nle]))	9.10
C[C@H]1C(=O)N[C@@H](CC(N)=O)C(=O)N[C@@H](Cc2ccncc2)C(=O)N[C@@H](Cc2c[nH]c3ccccc23)C(=O)N[C@@](C)(CO)C(=O)N[C@@H](Cc2ccc(C(=O)O)cc2)C(=O)N[C@@H](Cc2ccc(O)cc2)C(=O)N(C)CC(=O)N[C@@H](Cc2c[nH]c3ccccc23)C(=O)N[C@@H]2C=C[C@@H](C2)C(=O)N[C@@H](CCc2ccccc2)C(=O)N[C@@H](Cc2ccncc2)C(=O)N[C@@H](CO)C(=O)N[C@@H](Cc2c[nH]c3ccccc23)C(=O)N1C [SEQ ID NO. 248] (cyclo([4Pal]SW[NMeA]N[4Pal]W[αMeS][Phe(4-COOH)]Y[Sar]W[X4][hPhe]))	7.97
C[C@@H](c1c[nH]c2ccccc12)[C@@H]1NC(=O)CN(C)C(=O)[C@H](Cc2c[nH]cn2)NC(=O)[C@H](Cc2ccc(C(=O)O)cc2)NC(=O)[C@](C)(CO)NC(=O)[C@H](Cc2c[nH]c3c(Cl)cccc23)NC(=O)[C@H](Cc2ccc(C(=O)O)cc2)NC(=O)[C@H](CC(N)=O)NC(=O)[C@H]2CCCN2C(=O)[C@H]([C@@H](C)c2c[nH]c3ccccc23)NC(=O)[C@H](CO)NC(=O)[C@H](Cc2ccc(CN)cc2)NC(=O)[C@H](CCCNC(N)=O)NC(=O)CSC[C@@H](C(N)=O)NC1=O [SEQ ID NO. 215] ({CH2CO}-[Cit][Phe(4-CH2NH2)]S[Trp(βS-Me)][dP]N[Phe(4-COOH)][Trp(7-Cl)][αMeS][Phe(4-COOH)]H[Sar][Trp(βS-Me)]C-NH2; thioether N-14)	8.01
